Data: the NIST ThermoML archive (doi:10.1021/je500669y)

Experiment: xn = mol fraction of the nth substance listed
Details: Gas, isochoric method

F/C=C/C(F)(F)F [trans-1,3,3,3-tetrafluoropropene] + C
Details | specific volume [m3/kg]
263.12 K, 541.7 kPa, x2 = 0.747 | 0.092
273.11 K, 305.7 kPa, x2 = 0.513 | 0.113
273.14 K, 216.8 kPa, x2 = 0.31 | 0.12
273.19 K, 565.7 kPa, x2 = 0.747 | 0.092
283.07 K, 225.4 kPa, x2 = 0.31 | 0.12
283.29 K, 1326.6 kPa, x2 = 0.748 | 0.041
283.3 K, 588.9 kPa, x2 = 0.747 | 0.092
283.38 K, 319 kPa, x2 = 0.513 | 0.113
288.33 K, 665.7 kPa, x2 = 0.496 | 0.051
293.03 K, 233.9 kPa, x2 = 0.31 | 0.12
293.03 K, 611.2 kPa, x2 = 0.747 | 0.092
293.06 K, 330.6 kPa, x2 = 0.513 | 0.113
293.17 K, 1381 kPa, x2 = 0.748 | 0.041
293.26 K, 456.1 kPa, x2 = 0.251 | 0.056
293.33 K, 681.4 kPa, x2 = 0.496 | 0.051
303.15 K, 474.1 kPa, x2 = 0.251 | 0.056
303.16 K, 242.4 kPa, x2 = 0.31 | 0.12
303.16 K, 711.2 kPa, x2 = 0.496 | 0.051
303.16 K, 1435.1 kPa, x2 = 0.748 | 0.041
303.22 K, 634.1 kPa, x2 = 0.747 | 0.092
303.23 K, 342.7 kPa, x2 = 0.513 | 0.113
313.15 K, 251 kPa, x2 = 0.31 | 0.121
313.15 K, 995.8 kPa, x2 = 0.261 | 0.026
313.19 K, 354.4 kPa, x2 = 0.513 | 0.113
313.2 K, 1488.8 kPa, x2 = 0.748 | 0.041
313.22 K, 1512.1 kPa, x2 = 0.513 | 0.024
313.23 K, 657.6 kPa, x2 = 0.747 | 0.092
313.24 K, 738.5 kPa, x2 = 0.496 | 0.051
323.17 K, 259 kPa, x2 = 0.31 | 0.121
323.17 K, 510.4 kPa, x2 = 0.251 | 0.056
323.19 K, 366.1 kPa, x2 = 0.513 | 0.113
323.19 K, 765.2 kPa, x2 = 0.496 | 0.051
323.21 K, 1040.8 kPa, x2 = 0.261 | 0.026
323.27 K, 1573.2 kPa, x2 = 0.513 | 0.024
323.29 K, 1542.4 kPa, x2 = 0.748 | 0.041
323.35 K, 680.5 kPa, x2 = 0.747 | 0.092
333.18 K, 1636.8 kPa, x2 = 0.513 | 0.024
333.2 K, 702.6 kPa, x2 = 0.747 | 0.092
333.2 K, 792 kPa, x2 = 0.496 | 0.051
333.25 K, 378.1 kPa, x2 = 0.513 | 0.113
333.25 K, 1083.7 kPa, x2 = 0.261 | 0.026
333.25 K, 1595.7 kPa, x2 = 0.748 | 0.041
333.27 K, 267.5 kPa, x2 = 0.31 | 0.121
343.11 K, 546.9 kPa, x2 = 0.251 | 0.056
343.12 K, 1126.5 kPa, x2 = 0.261 | 0.026
343.16 K, 389.7 kPa, x2 = 0.513 | 0.113
343.18 K, 275.8 kPa, x2 = 0.31 | 0.121
343.23 K, 818.7 kPa, x2 = 0.496 | 0.051
343.23 K, 1648.5 kPa, x2 = 0.748 | 0.041
343.25 K, 725.3 kPa, x2 = 0.747 | 0.092
343.34 K, 1700.6 kPa, x2 = 0.513 | 0.024
